How the values were obtained:
[1] = tested on: DSS-induced inflammatory bowel disease mice; experiment: DSS-induced inflammatory bowel disease (acute colitis) mouse models; format: in vivo, C57BL/6 female mice; settings: for mortality (percent of mice that died): 14th day of the experiment, 70% died in DSS-induced IBD mice
Experimental: Dextran sodium sulfate (DSS)-induced acute colitis mouse models were constructed using 8-week-old C57BL/6 female mice (Samtako, Korea).
After 8-week-old C57BL/6 female mice (Samtako, Korea) were divided into each group (=10), each experimental group was fed a standard rodent diet supplemented with 3% (w/w) DSS in drinking water for the first 5 days to induce acute colitis and orally administered control (vehicle), β-lapachone 40 mg/kg, and β-lapachone 80 mg/kg for 14 days.
All animal-related procedures were discussed and approved by the Institutional Animal Care and Use Committee of the Hanyang University. The survival rate over time is shown in FIG. 9, and the change rate in body weight of mice in each experimental group was measured and shown in FIG. 10A. The fecal occult bleeding per rectum, total bleeding loss, and fecal concentration were measured daily.
By the same method as in Example 6.1, experimental groups were divided into a DSS untreated group (Control), a DSS treated group, and a DSS-+β-lapachone 80 mg/kg treated group, respectively, and treated. After the end of the experiment, the mice were sacrificed to remove the colon, and the accurate colon length was measured using a Vernier caliper, and is shown FIGS. 11A and 11B. In addition, the mRNA levels of genes of interleukin-1beta (IL-1β), interleukin-6 (IL-6), interleukin-18 (IL-18), interferon-γ (INF-γ), tumor necrosis factor-α (TNF-α), tumor necrosis factor-β (TNF-β), and monocyte chemoattractant protein-1 (MCP-1), which were inflammatory cytokine factors in the colon tissue, were analyzed by a real-time polymerase chain reaction through a conventional experiment procedure, and are shown in FIG. 12.

[2] = tested on: Poly I:C-induced cholestatic liver disease animal models; experiment: Treatment effect in Poly I:C-induced primary biliary cirrhosis (PBC) mouse animal models; format: in vivo, C57BL/6 male mice
Experimental: Of cholestatic liver diseases, primary biliary cirrhosis (PBC) may be introduced to a similar state by using a viral RNA mimic and the Toll-like receptor polyinosinic-polycytidylic acid (Poly I:C). After 8-week-old C57BL/6 male mice (Samtako, Korea) were divided into each group (=6), each experimental group excluding a normal group was intraperitoneally administered 5 mg/kg Poly I:C twice a week for 8 weeks. Thereafter, the mice were fed a diet with control (vehicle), β-lapachone 40 mg/kg, β-lapachone 80 mg/kg, and positive control ursodeoxycholic acid 100 mg/kg and obeticholic acid 30 mg/kg for 8 weeks. On the 16th week of treatment, the experiment was ended, and the mice were sacrificed and then the blood was collected from the heart.

[3] = tested on: DDC-induced cholestatic liver disease mice; experiment: DDC-induced cholestatic liver disease mice, DDC and β-lapachone administered together for 7 days; format: in vivo, C57BL/6 male mice
Experimental: To investigate the effect of β-lapachone (BL) on the occurrence of cholestatic liver disease, both […] and β-lapachone were administered to mice to characterize animal models.
After 8-week-old C57BL/6 male mice (Samtako, Korea) were divided into each group (=6), the mice were fed a diet with normal (vehicle), control (DDC), DDC-+β-lapachone 20 mg/kg, DDC+β-lapachone 40 mg/kg, DDC+β-lapachone 80 mg/kg, DDC+β-lapachone 100 mg/kg, and positive control DDC+ursodeoxycholic acid 100 mg/kg, and DDC+obeticholic acid 30 mg/kg (total 7 days). After 7 days of treatment, the mice were sacrificed and then the blood was collected from the heart. Thereafter, the levels of alanine aminotransferase (ALT), aspartate aminotransferase (AST), alkaline phosphatase (ALP), and bilirubin, which are blood indexes, were analyzed, and shown in FIG. 4.
After the cholestatic liver disease mouse animal models in Example 3.1 were sacrificed and the liver tissue was harvested therefrom, the mRNA levels of fibrosis-related genes were measured by a method similar to the method in Example 2.3.
In the cholestatic liver disease, the inflammation in the portal vein and damage to the bile ducts in the liver occur chronically, resulting in cholestasis and liver fibrosis. The mRNA levels of inflammatory cytokine genes in the liver tissue of the cholestatic liver disease mouse animal models obtained by the same method as in Example 3.1 were measured, and shown in FIG. 6.

[4] = tested on: peripheral blood mononuclear cells (PBMCs); experiment: IL-1β and IL-18 expression in LPS and ATP treated peripheral blood mononuclear cells; format: cell-based, C57BL/6 male mice; settings: LPS 200 ng/mL and ATP, β-lapachone 0.5, 1, 2 μM, 4 hours
Experimental: Considering that inflammatory cytokines mediate the pathogenic mechanism of cholestatic liver disease, the peripheral blood mononuclear cell model was used by a modified method of Boyum et al. (1968). Peripheral blood mononuclear cells isolated from healthy 8-week-old C57BL/6 male mice (Samtako, Korea) were maintained by primary culture in RPMI-1640 medium containing 10% FBS, 2 mM glutamine, 100 U penicillin, and 0.1 mg/ml streptomycin. Stable peripheral blood mononuclear cells (PBMCs) were treated with LPS at 200 ng/mL and ATP and β-lapachone at 0, 0.5, 1, 2 μM in the medium and, after 4 hours, the expression levels of IL-1β and IL-18 were investigated, and the results are shown in FIG. 15.

[5] = tested on: LX-2 hepatic stellate cell line; experiment: Fibronectin and α-SMA protein expression in TGF-β1-treated LX-2 hepatic stellate cell line (immunoblotting); format: cell-based; settings: LX-2, 1 ng/ml TGF-β1 + 0.5 or 1 μM β-lapachone, 24 hours
Experimental: Considering that inflammation and fibrosis of bile ducts cause cirrhosis in cholestatic liver disease, experiments were performed on the LX-2 hepatic stellate cell line model by using the method of Takaaki Higashi et al. (2017). The LX-2 cell line was subcultured in DMEM containing 10% FBS, 2 mM glutamine, 100 U penicillin, and 0.1 mg/ml streptomycin. The LX-2 cell line was added into a 6-well plate at a density of 16×10^4 cells/well, and cultured in DMEM containing 1 ng/ml TGF-β1, 1 ng/ml TGF-β1+0.5 μM β-lapachone or 1 ng/ml TGF-β1+1 μM β-lapachone for 24 hours. Thereafter, the protein expression levels of the fibrosis-related genes fibronectin and α-SMA of the obtained cells were measured by protein immunoblotting according to a conventional method known in the art.

macrophage line Raw264.7 = experiment: Inflammatory cytokine release in LPS and ATP treated macrophage line Raw264.7 (ELISA); format: cell-based; settings: Raw264.7, LPS 100 ng/ml, ATP 2.5 mM, 0.2, 0.5, 1, 2 μM β-lapachone, 24 hours; supernatant ELISA
Experimental: The macrophage line Raw264.7 (ATCC TIB-71, Manassas, VA, USA) was subcultured in DMEM supplemented with 10% FBS and 1% penicillin/streptomycin.
For inflammation induction, RAW264.7 cells were suspended in DMEM containing 2% FBS, inoculated in a 12-well plate to a cell number of 4×10^5/ml, and incubated in 5% CO2 incubator at 37° C. for 24 hours. With replacement with fresh media, the cells were treated with appropriate concentrations of a corresponding substance, LPS (100 ng/ml), and 0.2, 0.5, 1, and 2 μM β-lapachone, cultured for 24 hours, treated with ATP (2.5 mM), and then cultured for additional 30 minutes, and the supernatant was collected. The release of cytokines (IL-1β and TNF-α) of RaW264.7 macrophages was quantified using each cell-free supernatant-ELISA set (Invitrogen, Billerica, MA, USA) by Invitrogen according to the manufacture's instruction, and is shown in FIG. 14.

[6] = tested on: DDC-induced cholestatic liver disease mice; experiment: Preventive effect in DDC-induced cholestatic liver disease mouse animal models (β-lapachone given 3 days before DDC); format: in vivo, C57BL/6 male mice
Experimental: DDC-induced cholestatic liver disease mouse animal models were prepared according to the method of Elisa Pose et al. by using 8-week-old C57BL/6 male mice (Samtako, Korea). Briefly, cholestatic liver disease was induced by feeding a standard rodent diet supplemented with 0.1% (w/w) DDC for 7 or 14 days. The 12-hour light and dark cycle was maintained and animals were allowed to free access to water. The standard rodent diet included medium wheat, wheat, corn, and corn gluten flour, and soybean oil (14% protein). All animal related procedures were reviewed and approved by the Institutional Animal Care and Use Committee of Korea Research Institute of Bioscience and Biotechnology (KRIBB), KRIBB-AEC-20165). The tissue staining of the cholestatic liver disease animal models was measured through H&E staining (basic tissue staining), Sirius Red staining (collagen staining), and Masson's trichrome staining (collagen, cytoplasm, muscle fibers, etc.), and the tissue staining was measured by a skilled researcher. To investigate the preventive effect of β-Lapachone (BL) on cholestatic liver disease, the mice were fed a diet with 0 (DDC-vehicle), 40 mg/kg (DDC-BL40) and 80 mg/kg (DDC-BL80) 3 days before DDC treatment (total 17 days) and, after 3 days, were fed a diet with DDC (total 14 days). After 14 days of DDC treatment, the mice were sacrificed and the liver was harvested including the portal vein (PV) and bile ducts of the mice, and the surrounding lesions were confirmed by H&E, and are shown in FIG. 1. The liver harvested in Example 2.1 was investigated for tissues or connective tissues around cells through Sirius Red and Masson's trichrome staining, which are shown in FIG. 2A. The expression of the factors in the liver tissue obtained from the cholestatic liver disease mouse animal models of Example 2.1 was performed by a real-time polymerase chain reaction was performed according to the following procedure. Total RNA from liver samples was extracted using Tri-RNA Reagent (Favrogen BIOTECH CORP, Nong-Ke Rd, Taiwan) according to the procedure presented by Favrogen, and was reverse transcribed into cDNA by using PrimeScript™ RT reagent Kit with gDNA Eraser (TAKARA Korea Biomedical Inc, Seoul, 08506, Korea). Quantitative PCR was performed using TB Green™ Premix Ex Tag™ II (Tli RNaseH Plus), ROX plus (TAKARA Korea Biomedical Inc, Seoul, 08506, Korea) and QuantStudio 5 Real-Time PCR Instrument (Thermo Fisher Scientific, Waltham, MA, USA).

[7] = tested on: DDC-induced cholestatic liver disease mice; experiment: Treatment effect in cholestatic liver disease-induced mice (DDC 3 days, then treatment 4 days); format: in vivo, C57BL/6 male mice
Experimental: The treatment effect of β-lapachone in cholestatic liver disease-induced mouse animals were investigated. After 8-week-old C57BL/6 male mice (Samtako, Korea) were divided into each group (=6), each group excluding a control group was fed a diet containing 0.1% DDC for 3 days. Thereafter, the mice were fed a diet with DDC control (vehicle), DDC-+β-lapachone 20 mg/kg, DDC-+β-lapachone 40 mg/kg, DDC-+β-lapachone 80 mg/kg, and positive control DDC+obeticholic acid 30 mg/kg for 4 days (total 7 days). After 7 days of feeding, the mice were sacrificed and then the blood was collected from the heart.

[8] = DSS + β-lapachone 80 mg/kg vs DSS
[9] = Poly I:C 5 mg/kg i.p. 8 weeks, then β-lapachone 40, 80 mg/kg in diet 8 weeks
[10] = vs ursodeoxycholic acid 100 mg/kg and obeticholic acid 30 mg/kg
[11] = DDC + β-lapachone 20, 40, 80, 100 mg/kg in diet, depending on the concentration
[12] = liver mRNA, DDC + β-lapachone, depending on the concentration
[13] = liver mRNA, DDC-BL40 and DDC-BL80 vs DDC-vehicle
[14] = 0.1% DDC 3 days, then DDC + β-lapachone 20, 40, 80 mg/kg in diet 4 days, depending on the concentration

In the case of CC1(C)CCC2=C(O1)c1ccccc1C(=O)C2=O [β-lapachone], the “mRNA level of IL-1β in colon tissue” value [1, 8] is reported as “significantly reduced”, the “mRNA level of IL-6 in colon tissue” value [1, 8] is reported as “significantly reduced” and the “mRNA level of IL-18 in colon tissue” value [1, 8] is reported as “significantly reduced”. The “mRNA level of INF-γ in colon tissue” value [1, 8] was “significantly reduced”, the “mRNA level of MCP-1 in colon tissue” value [1, 8] was “significantly reduced” and the “mRNA level of TNF-α in colon tissue” value [1, 8] was “significantly reduced”. The “mRNA level of TNF-β in colon tissue” value [1, 8] was “significantly reduced”, the colon length ([1]; DSS + β-lapachone 80 mg/kg vs DSS treated group) was “recovered” and the colitis score ([1]; sum of scores for body weight reduction, feces condition, blood feces (Table 3), β-lapachone 40 and 80 mg/kg) was “reduced depending on the treatment concentration”. The “mortality (percent of mice that died)” value ([1]; β-lapachone 40 mg/kg orally) was 50%, the “mortality (percent of mice that died)” value ([1]; β-lapachone 80 mg/kg orally) was 20% and the “ALP in the blood” value [2, 9] was “inhibited”. For the same compound, the “ALT in the blood” value [2, 9] was “inhibited”, the “AST in the blood” value [2, 9] was “inhibited” and the “effect on blood indexes (AST, ALT, ALP) compared with comparative substances” value [2, 10] was “excellent effect compared with the comparative substances ursodeoxycholic acid (UDCA) and obeticholic acid (OCA)”. The “ALP in the blood” value [3, 11] was “inhibited”, the “ALT in the blood” value [3, 11] was “inhibited” and the “AST in the blood” value [3, 11] was “inhibited”. For the same compound, the “bilirubin in the blood” value [3, 11] was “inhibited”, the “transcriptional level of IL-1β” value ([3]; liver mRNA, DDC + β-lapachone) was “inhibited” and the “transcriptional level of TNFα” value ([3]; liver mRNA, DDC + β-lapachone) was “inhibited”. The “transcriptional level of Col1α1” value [3, 12] was “inhibited”, the “transcriptional level of Col1α2” value [3, 12] was “inhibited” and the “transcriptional level of TGF-β1” value [3, 12] was “inhibited”. For the same compound, the “effect on blood indexes (ALT, AST, ALP, bilirubin) compared with positive controls” value [3, 10] was “excellent effects compared with ursodeoxycholic acid (UDCA) and obeticholic acid (OCA)”, the “expression level of IL-1β increased by LPS and ATP” value [4] was “reduced depending on the concentration” and the “expression level of IL-18 increased by LPS and ATP” value [4] was “reduced depending on the concentration”. For the same compound, the “protein expression level of fibronectin increased by TGF-β1” value [5] was “reduced depending on the concentration”, the “protein expression level of α-SMA increased by TGF-β1” value [5] was “reduced depending on the concentration” and the “expression level of IL-1β protein increased by LPS and ATP” value (macrophage line Raw264.7) was “reduced depending on the concentration”. The “expression level of TNF-α protein increased by LPS and ATP” value (macrophage line Raw264.7) was “reduced depending on the concentration”, the “lesions around the portal vein (PV) and bile ducts (H&E)” value ([6]; DDC-BL40 and DDC-BL80 (40 and 80 mg/kg in diet, 17 days; DDC 14 days) compared with DDC-vehicle, concentration dependent) was “significant lesion reductions” and the “transcriptional level of Col1α1” value [6, 13] was “significantly reduced”. For the same compound, the “transcriptional level of Col4α1” value [6, 13] was “significantly reduced”, the “transcriptional level of TGF-β1” value [6, 13] was “significantly reduced” and the “transcriptional level of fibronectin” value [6, 13] was “significantly reduced”. For the same compound, the “transcriptional level of α-SMA” value [6, 13] was “significantly reduced”, the “formation of connective tissues (Sirius Red and Masson's trichrome staining)” value ([6]; liver of DDC mice treated with β-lapachone 40 and 80 mg/kg vs DDC-vehicle) was “inhibited such fibrosis progression” and the “ALP in the blood” value [7, 14] was “inhibited”. For the same compound, the “bilirubin in the blood” value [7, 14] was “inhibited” and the “effect on blood indexes (bilirubin, ALP) compared with positive controls” value ([7]; vs ursodeoxycholic acid (UDCA) and obeticholic acid (OCA)) was “excellent effect compared with ursodeoxycholic acid (UDCA) and obeticholic acid (OCA)”.
